Source: patent US20040214809A1, “Stabilized silver-ion sulfite complex compositions and methods” (BioInterface Technologies, Inc., priority 2003, published 2004)

Experiments:
E. coli (ATCC 225922) = test: Filter disc zone of inhibition on tryptic soy agar; format: cell-based; details: 7 mm filter disc soaked with solution (equivalent of 1% silver nitrate), 37° C. overnight, measured from disc edge, average of two trials
Method: (§1) Additionally, a non-stabilized silver thiosulfate complex made according to Example 5. […] Filter paper discs (7 mm diameter) were soaked with either a stabilized silver thiosulfate solution or a non-stabilized silver thiosulfate solution. The antimicrobial studies were performed by first plating S. aureus (ATCC 29213) or E. coli (ATCC 225922) on tryptic soy agar. A disc containing the stabilized thiosulfate solution or the control solution was placed one each of these microbial lawns. […] The culture plates were incubated at 37° C. overnight. The zone of microbial growth inhibition (ZOI) was measured (in millimeters) from the edge of each filter disc and the results from two trials were averaged. The larger the measured ZOI, the greater the antimicrobial effect.

S. aureus (ATCC 29213) = test: Filter disc zone of inhibition on tryptic soy agar; format: cell-based; details: 7 mm filter disc soaked with solution (equivalent of 1% silver nitrate), 37° C. overnight, measured from disc edge, average of two trials
Method: as §1

Substance: silver nitrate [Silver Nitrate Solution]
- E. coli Zone Of Inhibition (E. coli (ATCC 225922)): 1.0 millimeters
- S. aureus Zone Of Inhibition (S. aureus (ATCC 29213)): 1.5 millimeters
